Laboratory results as given in patent US8962608B2, “Cycloalkylnitrile pyrazole carboxamides as janus kinase inhibitors” (Merck Sharp & Dohme Corp., priority 2011, dated 2015).
pIC50: −log10 of the molar value.

Legend:
[1] = target: JAK2 (recombinant purified GST-tagged catalytic domain) (Homo sapiens (Human), UniProt O60674); experiment: biochemical;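 also: biochemical JAK kinase assay with HTRF detection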
[2] = target: JAK1 (recombinant purified GST-tagged catalytic domain) (Homo sapiens (Human), UniProt P23458); experiment: biochemical;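 also: biochemical assay with HTRF read-out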
JAK1 (recombinant purified GST-tagged catalytic domain), sequence (P23458 875-1153): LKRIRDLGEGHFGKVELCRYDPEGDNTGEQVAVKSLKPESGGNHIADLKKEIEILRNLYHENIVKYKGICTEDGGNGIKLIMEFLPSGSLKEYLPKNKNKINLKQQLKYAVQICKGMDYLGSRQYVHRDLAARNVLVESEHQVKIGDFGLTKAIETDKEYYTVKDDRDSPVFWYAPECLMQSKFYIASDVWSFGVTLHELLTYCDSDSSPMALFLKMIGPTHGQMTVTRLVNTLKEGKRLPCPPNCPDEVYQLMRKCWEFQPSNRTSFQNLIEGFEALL

JAK2 (recombinant purified GST-tagged catalytic domain), sequence (O60674 849-1124): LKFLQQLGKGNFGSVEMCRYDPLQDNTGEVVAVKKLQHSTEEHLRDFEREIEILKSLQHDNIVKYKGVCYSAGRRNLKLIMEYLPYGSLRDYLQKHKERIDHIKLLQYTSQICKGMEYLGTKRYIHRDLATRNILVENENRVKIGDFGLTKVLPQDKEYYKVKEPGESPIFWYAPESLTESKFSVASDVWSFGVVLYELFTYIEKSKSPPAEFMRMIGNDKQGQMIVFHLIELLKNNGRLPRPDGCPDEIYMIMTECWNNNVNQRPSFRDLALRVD

Row | SMILES | pIC50 [1] | pIC50 [2]
1 | N#C[C@H]1CCCCC1n1cc(C(N)=O)c(Nc2ccc(-c3cn[nH]c3)nc2)n1 (mixture of isomers) [Example 21-3, 1-[(1S,2S and 1R,2R)-2-cyanocyclohexyl]-3-{[6-(1H-pyrazol-4-yl)pyridin-3-yl]amino}-1H-pyrazole-4-carboxamide] | 7.80 | 8.70
2 | N#C[C@H]1C[C@H](N2CCC2)CC[C@@H]1n1cc(C(N)=O)c(Nc2ccc(C(F)F)nc2)n1 (single isomer, unassigned) [Example 28-50, 1-[(1S,2S,4R or 1R,2R,4S)-4-azetidin-1-yl-2-cyanocyclohexyl]-3-{[6-(difluoromethyl)pyridin-3-yl]amino}-1H-pyrazole-4-carboxamide] | 7.33 | 8.70
3 | CC(C)(C)N[C@H]1CCC(n2cc(C(N)=O)c(Nc3ccc(C(F)(F)F)cc3)n2)[C@@H](C#N)C1 (single isomer, unassigned) [Example 28-204, 1-[(1S,2S,4S or 1R,2R,4R)-4-(tert-butylamino)-2-cyanocyclohexyl]-3-{[4-(trifluoromethyl)phenyl]amino}-1H-pyrazole-4-carboxamide] | 7.59 | 9.70
4 | CN(C)[C@H]1CC[C@H](n2cc(C(N)=O)c(Nc3ccc(Cl)c(F)c3)n2)[C@@H](C#N)C1 (single isomer, unassigned) [Example 28-41, 3-[(4-chloro-3-fluorophenyl)amino]-1-[(1S,2S,4S or 1R,2R,4R)-2-cyano-4-(dimethylamino)cyclohexyl]-1H-pyrazole-4-carboxamide] | 7.24 | 8.70
5 | CC1CN([C@H]2CC[C@H](n3cc(C(N)=O)c(Nc4ccc(Cl)cc4)n3)[C@@H](C#N)C2)C1 (single isomer, unassigned) [Example 28-96, 3-[(4-chlorophenyl)amino]-1-[(1S,2S,4S or 1R,2R,4R)-2-cyano-4-(3-methylazetidin-1-yl)cyclohexyl]-1H-pyrazole-4-carboxamide] | 7.07 | 8.70
6 | N#C[C@H]1C[C@H](N2C[C@@H]3[C@@H](CO)[C@@H]3C2)CC[C@@H]1n1cc(C(N)=O)c(Nc2ccc(C(F)(F)F)cc2)n1 (single isomer, unassigned) [Example 28-15, 1-{(1S,2S,4R or 1R,2R,4S)-2-cyano-4-[(1R,5S,6R or 1S,5R,6S)-6-(hydroxymethyl)-3-azabicyclo[3.1.0]hex-3-yl]cyclohexyl}-3-{[4-(trifluoromethyl)phenyl]amino}-1H-pyrazole-4-carboxamide] | 7.66 | 9.05
7 | N#C[C@H]1C[C@@H](NC2(C(F)(F)F)CC2)CC[C@@H]1n1cc(C(N)=O)c(Nc2ccc(Cl)cc2)n1 (single isomer, unassigned) [Example 28-226, 3-[(4-chlorophenyl)amino]-1-[(1S,2S,4S or 1R,2R,4R)-2-cyano-4-{[1-(trifluoro-methyl)cyclopropyl]a-mino}cyclohexyl]-1H-pyrazole-4-carboxamide] | 7.44 | 8.30
8 | N#C[C@H]1CC(NCC2CCS(=O)(=O)C2)CC[C@@H]1n1cc(C(N)=O)c(Nc2ccc(S(=O)(=O)C(F)(F)F)cc2)n1 (single isomer, unassigned) [Example 28-152, 1-[(1S,2S or 1R,2R)-2-cyano-4-{[(1,1-dioxidotetrahydrothiophen-3-yl)methyl]amino}cyclohexyl]-3-({4-[(trifluoro-methyl)sulfonyl]phenyl}amino)-1H-pyrazole-4-carboxamide] | 8.00 | 9.40
9 | Cc1cccc(C)c1NS(=O)(=O)c1ccc(Nc2nn([C@H]3CCCC[C@@H]3C#N)cc2C(N)=O)cc1 (single isomer, unassigned) [Example 17-88, 1-[(1R,2R or 1S,2S)-2-cyanocyclohexyl]-3-({4-[(2,6-dimethylphenyl)sulfamoyl]phenyl}amino)-1H-pyrazole-4-carboxamide] | 8.05 | 9.00
10 | N#C[C@H]1CCCC[C@@H]1n1cc(C(N)=O)c(Nc2ccc(C(F)(F)F)nc2)n1 (single isomer, unassigned) [Example 17-109, 1-[(1S,2S or 1R,2R)-2-cyanocyclohexyl]-3-{[6-(trifluoromethyl)pyridin-3-yl]amino}-1H-pyrazole-4-carboxamide] | 6.59 | 7.30
11 | Cn1cc(-c2cncc(Nc3nn(C4CCCC[C@@H]4C#N)cc3C(N)=O)c2)cn1 (single isomer, unassigned) [Example 21-1, 1-[(1S,2S or 1R,2R)-2-Cyanocyclohexyl]-3-{[5-(1-methyl-1H-pyrazol-4-yl)pyridin-3-yl]amino}-1H-pyrazole-4-carboxamide] | 7.14 | 8.22
12 | N#C[C@H]1C[C@H](O)CCC1n1cc(C(N)=O)c(Nc2ccccc2)n1 (mixture of isomers) [Example 2-2, 1-[(1S,2S,4R and 1R,2R,4S)-2-cyano-4-hydroxycyclohexyl]-3-(phenylamino)-1H-pyrazole-4-carboxamide] | 7.15 | 8.22
13 | N#C[C@H]1C[C@@H](N2C[C@@H]3[C@@H](CO)[C@@H]3C2)CC[C@@H]1n1cc(C(N)=O)c(Nc2ccc(C(F)(F)F)cc2)n1 (single isomer, unassigned) [Example 28-34, 1-{(1S,2S,4S or 1R,2R,4R)-2-cyano-4-[(1R,5S,6S or 1S,5R,6R)-6-(hydroxymethyl)-3-azabicyclo[3.1.0]hex-3-yl]cyclohexyl}-3-{[4-(trifluoromethyl)phenyl]amino}-1H-pyrazole-4-carboxamide] | 7.70 | 9.22
14 | N#C[C@H]1CC(NCC(=O)O)CC[C@@H]1n1cc(C(N)=O)c(Nc2ccc(S(=O)(=O)C(F)(F)F)cc2)n1 (single isomer, unassigned) [Example 28-160, N-{(3S,4S or 3R,4R)-4-[4-carbamoyl-3-({4-[(trifluoro-methyl)sulfonyl]phenyl}amino)-1H-pyrazol-1-yl]-3-cyanocyclohexyl}glycine] | 9.00 | 9.70
15 | N#C[C@H]1CCCC[C@@H]1n1cc(C(N)=O)c(Nc2ccc(Cl)cc2)n1 (racemic) [Example 17-104, 3-[(4-chlorophenyl)amino]-1-[(1S,2S and 1R,2R)-2-cyanocyclohexyl]-1H-pyrazole-4-carboxamide] | 7.60 | 8.70
16 | C[C@H](N[C@@H]1CC[C@H](n2cc(C(N)=O)c(Nc3ccc(C(F)(F)F)cc3)n2)[C@@H](C#N)C1)C1CC1 (single isomer, unassigned) [Example 28-190, 1-[(1S,2S,4R or 1R,2R,4S)-2-cyano-4-{[(1S)-1-cyclopropylethyl]amino}cyclo-hexyl]-3-{[4-(trifluoromethyl)phenyl]amino}-1H-pyrazole-4-carboxamide] | 6.57 | 8.70
17 | N#C[C@H]1C[C@@H](O)CC[C@@H]1n1cc(C(N)=O)c(Nc2ccc(C(F)(F)F)cc2)n1 (single isomer, unassigned) [Example 33-4, 1-[(1S,2S,4S or 1R,2R,4R)-2-cyano-4-hydroxycyclohexyl]-3-{[4-(trifluoromethyl)phenyl]amino}-1H-pyrazole-4-carboxamide] | 7.05 | 8.30
18 | N#C[C@H]1C[C@H](O)CC[C@@H]1n1cc(C(N)=O)c(Nc2ccc(OC(F)(F)F)cc2)n1 (single isomer, unassigned) [Example 24, 1-((1S,2S or 1R,2R)-2-cyano-4(R)-hydroxycyclohexyl)-3-((4-(trifluoromethoxy)phenyl)amino)-1H-pyrazole-4-carboxamide] | 7.21 | 8.22

Next, values leading:

Row | pIC50 [1] | pIC50 [2] | SMILES
19 | 6.62 | 8.22 | CN(C1CCC1)[C@H]1CC[C@@H](n2cc(C(N)=O)c(Nc3ccc(C(F)(F)F)cc3)n2)[C@H](C#N)C1 (single isomer, unassigned) [Example 30-8, l-{(1R,2R,4S or 1S,2S,4R)-2-cyano-4-[cyclo-butyl(methyl)amino]cyclohexyl}-3-{[4-(trifluoro-methyl)phenyl]amino}-1H-pyrazole-4-carboxamide]
20 | 7.77 | 9.07 | N#C[C@@H]1C[C@@H](NC2COC2)CC[C@H]1n1cc(C(N)=O)c(Nc2ccc(C(F)(F)F)cc2)n1 (single isomer, unassigned) [Example 30-17, 1-[(1R,2R,4S or 1S,2S,4R)-2-cyano-4-(oxetan-3-ylamino)cyclohexyl]-3-{[4-(trifluoromethyl)phenyl]amino}-1H-pyrazole-4-carboxamide]
21 | 6.61 | 7.48 | N#C[C@H]1C[C@@H](C(=O)NC2COC2)CC[C@@H]1n1cc(C(N)=O)c(Nc2ccc(Cl)cc2)n1 (single isomer, unassigned) [Example 35-7, 3-[(4-chlorophenyl)amino]-1-[(1S,2S,4S or 1R,2R,4R)-2-cyano-4-(oxetan-3-ylcarbamoyl)cyclohexyl]-1H-pyrazole-4-carboxamide]
22 | 7.23 | 8.05 | CC(C)(O)C1CN(C(=O)[C@@H]2CC[C@@H](n3cc(C(N)=O)c(Nc4ccc(Cl)cc4)n3)[C@H](C#N)C2)C1 (single isomer, unassigned) [Example 35-3, 3-[(4-chlorophenyl)amino]-1-[(1R,2R,4R or 1S,2S,4S)-2-cyano-4-{[3-(1-hydroxy-1-methylethyl)azetidin-1-yl]carbonyl}cyclohexyl]-1H-pyrazole-4-carboxamide]
23 | 7.48 | 8.10 | N#C[C@H]1C[C@@H](O)CC[C@@H]1n1cc(C(N)=O)c(Nc2ccc(C(F)F)nc2)n1 (single isomer, unassigned) [Example 33-8, 1-[(1S,2S,4S or 1R,2R,4R)-2-cyano-4-hydroxycyclohexyl)-3-{I6-(difluoromethyl)pyridin-3-yl]amino}-1H-pyrazole-4-carboxamide]
24 | 8.05 | 9.07 | CCNC(=O)O[C@@H]1CCC(n2cc(C(N)=O)c(Nc3ccc(F)cc3)n2)[C@@H](C#N)C1 (mixture of isomers) [Example 34-7, (1R,3S,4S and 1S,3R,4R)-4-{4-carbamoyl-3-[(4-fluorophenyl)aminol-1H-pyrazol-1-yl}-3-cyanocyclohexyl ethylcarbamate]
